Experimental data as given in PubChem BioAssay (NCI).
“And” between values parts separate entries of the source, which are not always exact repeats. Equal values may be shown once.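 Tested at 5 concentrations; 48 h exposure; 96-well plates; endpoints linearly interpolated, else capped at highest concentration. At the GI50, growth is halved. Definition used: TGI = concentration required for complete inhibition of growth.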

Columns and labels:
Experiment in all cases: NCI tumour cell line growth inhibition, 48 h
[1] = tested on: MDA-N
[2] = tested on: RXF-631 renal
[3] = tested on: DLD-1 colon
[4] = tested on: LXFL 529 NSCLC
[5] = tested on: DMS 273 small cell lung
[6] = tested on: KM20L2 colon
[7] = tested on: XF 498 CNS
[8] = tested on: P388 leukemia
[9] = tested on: P388/ADR leukemia
[10] = tested on: SN12K1 renal

Row | SMILES | TGI [1] | TGI [3] | TGI [4] | TGI [5] | TGI [6] | TGI [7] | also measured
1 | NCCO/C=C/C(N)C(=O)O (stereo not drawn) | > 100 µM | – | – | – | – | – | –
2 | COC(=O)C1C=CCC2CCCCC21N1CCCC1 (stereo not drawn) | – | > 100 µM | > 100 µM | > 100 µM | > 100 µM | – | TGI [2]: > 100 µM
3 | N=C1CCCC1C(=S)SCCC(N)=O (stereo not drawn) | > 100 µM | – | – | – | – | – | –
4 | N/N=C(/Cc1ccccc1)NNO | – | > 100 µM | > 100 µM | > 100 µM | > 100 µM | – | TGI [2]: > 100 µM
5 | CC1CCC2C(C)C(=O)OC2C2(C)C(=O)C=CC12 (stereo not drawn) | > 10 µM | – | – | – | – | – | –
6 | Cc1ccc(C2=CC(=O)c3ccccc3C2=O)n1-c1ccccc1 | – | > 100 µM | > 100 µM | > 100 µM | > 100 µM | > 100 µM | –
7 | CN(C)C(=S)/N=c1\ss/c(=N\C(=S)N(C)C)n1-c1cccc(Cl)c1 | – | – | – | > 100 µM | > 100 µM | – | –
8 | O=C1/C(=C/c2ccccc2)Oc2cc(O)ccc21 | > 100 µM | – | – | – | – | – | –
9 | [N-]=[N+]=CC(=O)CCC(N)C(=O)O (stereo not drawn) | > 250 µM | > 170 µM | – | > 250 µM | > 250 µM | 230 µM | TGI [8]: 21.9 µM; TGI [9]: 30.4 µM; TGI [10]: 141 µM; GI50 [1]: 2.26 µM
10 | N#C/C(=C\c1ccc2[nH]ccc2c1)C(=O)NCCCCNC(=O)/C(C#N)=C/c1ccc2[nH]ccc2c1 | > 10 µM | > 100 µM | > 100 µM | > 100 µM | > 100 µM | > 100 µM | –
11 | C1=CC(=P(c2ccccc2)(c2ccccc2)c2ccccc2)C=C1 | – | 62.5 µM | 13 µM | 26.4 µM | 31.1 µM | 12.6 µM | TGI [2]: 46.7 µM
12 | C[C@@H]1C[C@@H]([C@H](O)CC2CC(=O)NC(=O)C2)C(=O)[C@@H](C)C1 | – | 1.98 µM | 0.623 µM | – | 21.5 µM | 0.504 µM | TGI [2]: 0.608 µM
13 | CCOc1c(Br)cc(Br)cc1C=C(C#N)C#N | > 10 µM | – | – | – | – | – | –
14 | CC(C)Cc1cnc(CC(C)C)c(=O)[nH]1 | > 100 µM | – | – | – | – | – | –
15 | OCC(O)C(O)C(O)C(/C=N\Nc1ncnc2c(Br)cc(Br)cc12)=N/Nc1ncnc2c(Br)cc(Br)cc12 (stereo not drawn) | 23.2 µM and > 100 µM | – | – | – | – | – | –
16 | O=C1CC23CCCCCCCCCCC2(C1)CC(=O)C3 (stereo not drawn) | – | > 100 µM | > 100 µM | 52.5 µM | – | 49.2 µM | –
17 | O=C(Nc1ccc(Cl)cc1C(F)(F)F)C(=O)Nn1c(=S)[nH]c2ccccc2c1=O | > 100 µM | – | – | – | – | – | –
18 | CC(C)(C)C#COC(=O)c1ccccc1 | – | > 100 µM | > 100 µM | – | > 100 µM | – | –
19 | COc1c2ccoc2nc2c(OC)c(OCC(O)C(C)(C)O)ccc12 (stereo not drawn) | > 100 µM | – | – | – | – | – | –

Row | SMILES | TGI [1] | TGI [3] | TGI [4] | TGI [5] | TGI [6] | TGI [7] | also measured
20 | O=C(c1ccccc1)C1N=NN(Cc2ccccc2[N+](=O)[O-])C1C(=O)c1ccccc1 (stereo not drawn) | – | > 100 µM | > 100 µM | > 100 µM | > 100 µM | – | –
21 | O=c1c(Cc2ccccc2)c(O)cc2n1CCC2 | – | > 100 µM | > 100 µM | – | > 100 µM | > 100 µM | TGI [2]: > 100 µM
22 | Cc1cccc(C)c1NC(=O)C(=O)Cc1nc2ccccc2s1 | – | > 100 µM | > 100 µM | > 100 µM | > 100 µM | > 100 µM | –
23 | COC(=O)C1CC(c2ccc(OC)c(OC)c2)OC1=O (mixture of isomers) | – | > 100 µM | > 100 µM | > 100 µM | > 100 µM | > 100 µM | TGI [2]: > 100 µM
24 | Cc1nnc2n1N=C(c1ccccc1)C(c1ccccc1)S2 (stereo not drawn) | – | > 100 µM | > 100 µM | > 100 µM | 76.3 µM | > 100 µM | –
25 | c1ccc2c(c1)[nH]c1c2nc2ccccn21 | – | > 100 µM | > 100 µM | > 100 µM | > 100 µM | > 100 µM | TGI [2]: > 100 µM
26 | COc1ccc(-c2ccc(CC(=O)O)cc2)cc1OC | – | > 100 µM | > 100 µM | – | > 100 µM | > 100 µM | –
27 | N#Cc1nc(CCc2nc(C#N)c(N)o2)oc1N | > 10 µM | – | – | – | – | – | –
28 | Cn1c(=O)oc2cc(C3CCC(=O)N3Cc3csc(-c4ccccc4)n3)ccc21 (stereo not drawn) | – | > 100 µM | > 100 µM | > 100 µM | > 100 µM | > 100 µM | –
29 | COc1cccc2c1C(=O)c1c(O)c3c(c(O)c1C2=O)C[C@@](O)(C(C)=O)CC3OC1CC(OC2CC(N)C(O)C(C)O2)C(O)C(C)O1 (stereo partly drawn) | > 100 µM | – | – | – | – | – | –
30 | c1cnc2c(c1)-n1cccc1C1(CCCCC1)NN2 | – | – | – | > 100 µM | – | > 100 µM | –
31 | Cc1cc2c(c(C(=O)O)c1C)-c1cccc(Cl)c1C2=O | – | > 100 µM | > 100 µM | > 100 µM | > 100 µM | > 100 µM | –
32 | CN1CCCC2[C@@H]3CCC4c5nonc5CC[C@]4(C)C3CC[C@@]21C (stereo partly drawn) | – | > 100 µM | > 100 µM | > 100 µM | > 100 µM | 81.8 µM | –
33 | O=C1c2ccccc2-c2nc3ccncc3n21 | > 100 µM | – | – | – | – | – | –
34 | Oc1ccc(Cl)cc1C=Nc1cnc2ccccc2c1 | > 100 µM | – | – | – | – | – | –
35 | COc1cc(C)c2c(c1)CN1CN2Cc2cc(OC)cc(C)c21 | – | > 100 µM | > 100 µM | > 100 µM | – | – | –
36 | Cc1ccccc1NC(=O)CSc1nnc(-c2ccc(N=Cc3ccc(Cl)cc3)cc2)o1 | – | – | > 100 µM | > 100 µM | > 100 µM | > 100 µM | –
37 | Cc1n[nH]c2ccccc2c1=O | > 100 µM | – | – | – | – | – | –
